Like-named read-outs stand apart in the source and are kept apart here.
Key:
MDA-MB-231 cells [1] = test: Cell cycle analysis by flow cytometry (PI); format: cell-based, human; details: 30 μM
Experimental: In order to study the stages of the cell cycle affected by andrographolide, flow cytometry analysis of cell cycle was carried out. Cells were seeded in a 6-well tissue culture plate at an initial density of 2.5 × 10^5 cells per well in the presence of andrographolide (30 μM) or vehicle (DMSO) for 24, 36 and 48 h. The treatment medium and the attached cells were collected after trypsinisation and centrifugation at 1000 × g. Cells were then fixed with 70 % ethanol at 4 °C overnight. The resulted pellets were resuspended in PBS having 100 μg/ml RNAse A (Sigma-Aldrich, USA) and 50 μg/ml PI, and then kept in dark at 25 °C for 30 min. Cell cycle phase distribution were monitored on the BD FACSVerse™ (Becton Dickinson, USA) and analyzed by using FACSuite™ software. A total of 10,000 events were recorded.

caspase-7 = test: Caspase activity assay in MCF-7 cells; format: cell-based, human; details: MCF-7, 0-80 μM, 24 h
cytochrome c = test: Western blot of cytosolic and mitochondrial fractions of MDA-MB-231 cells; format: cell-based, human; details: 30 μM, 48 h
Experimental: Cells were treated with andrographolide (30 μM) for 48 h and mitochondrial as well as cytosolic fractions were obtained with a mitochondria isolation kit (Pierce, Rockford, USA). The mitochondrial pellet was re-suspended in sample buffer for SDS-gel electrophoresis and analyzed by Western blot using cytochrome c antibody. COX IV and β-actin were used as loading controls for the mitochondrial fraction and cytosolic fraction respectively. Cytosolic fractions were also Western blotted for studying cytochrome c expression.
Cells from control regime and andrographolide treatment (30 μM, 48 h) were used for Western blot. After centrifugation, cell pellets were lysed in RIPA buffer containing protease and phosphatase inhibitors (Roche, Germany). Each cell lysate was used for protein assay with Bio-Rad protein assay kit (Bio-Rad, USA). A protein sample of 50 μg was electrophoresed in a 12 % SDS-PAGE. Proteins were electro-transferred from the gel onto a nitrocellulose membrane (Amersham Biosciences, UK). […] The protein bands were visualized by incubating the membrane with diaminobenzidine/hydrogen peroxide (Sigma-Aldrich) for color reaction. β-Actin and COX IV were also detected as loading controls.

MDA-MB-231 cells [2] = test: Cell proliferation assay (trypan blue); format: cell-based, human; details: 30 μM, 48 h
Experimental: MDA-MB-231 cells harvested from exponential growth phase were seeded at a density of 1 × 10^4/well in a 24-well culture plate. After 24 h, the cells were treated with varying concentrations of andrographolide (15, 30, 45 and 60 μM) or DMSO (0.1 %, vehicle control) for 12, 24, 36 and 48 h. After treatment, cells were harvested by trypsinization, stained with 0.4 % trypan blue and counted in a hemocytometer. Cell proliferation index PI, was calculated as PI = Ct/C0; where Ct = cell count at time t and C0 = cell count at the time of treatment.

[3] = In vivo pharmacokinetic study, plasma LC-MS/MS; parameters: species or system Female BALB/c mice; details: for Plasma exposure at 24 h: LLOQ 2.44 ng/ml; for bioavailability: PO 50 mg/kg vs IV 5 mg/kg; for half-life: read-out: Terminal T½ (converted); for AUC(0-t): read-out: AUC(0-8)
Experimental: Female BALB/c mice, being divided into two groups (n = 6 per group), received andrographolide via oral route (PO) as well as intravenous (IV) bolus dosing at 50 mg/kg (equivalent to 142.73 μmol/kg and dose volume, 10 ml/kg) and 5 mg/kg body weight (equivalent to 14.27 μmol/kg and dose volume, 5 ml/kg) respectively. The formulation was prepared in 10 % DMSO, 10 % Cremophor and 80 % 1/15 (M) Na2HPO4 with dose volume of 10 ml/kg and 5 ml/kg for oral and IV respectively. ~50 μl of blood samples were collected at each time points (0.25, 0.5, 1, 2, 4, 8 and 24 h for PO and 0.08, 0.25, 0.5, 1, 2, 4, 8 and 24 h for IV) into heparinized capillary tubes by piercing the saphenous vein using a disposable needle (26 G). Blood samples were centrifuged at 3000 rpm for 10 min at 4 °C. The resulting plasma samples were stored at –80 °C until bioanalysis.
Analysis of plasma samples were performed using a liquid chromatography tandem mass spectroscopy (API-4000, AB Sciex Instruments, Foster City, CA) attached with the ESI source. The LC system consisted of LC-20ADvp pump (Shimadzu, Kyoto, Japan) and CTC PAL (HTS) autosampler. Liquid chromatography was performed using a Luna C18 column (2 × 30 mm, 5 μ particle) of Phenomenex (Torrance, CA) and the mobile phase consisted of 2 mM ammonium acetate in water (A) and 80: 20 (v/v) MeCN: Solvent A (B). The gradient elution program was as follows: first 60 s only A for washing, then 60 s for gradient up to 100 % B and it was continued for next 60 s. Total run time was 3.5 min with a flow of 0.8 ml/min at room temperature. Samples were detected and quantified using Analyst 1.4.2. Internal standard used was diclofenac.
The concentrations of test samples were determined from the standard curve prepared by spiking 2 μl of working stock in 98 μl of blank plasma along with the quality control samples (low, mid and high). The linear equation of the standard curve was obtained by regressional analysis of the peak area ratio of analyte to internal standard versus nominal concentration with a weighting factor of 1/X2. The calibration curve was linear in the concentration range 2.44 (LLOQ) to 1250 ng/ml.

[4] = female, BALB/c, mouse, plasma, iv, 5 mg/kg, IV at 5 mg/kg, female BALB/c mice
[5] = female, BALB/c, mouse, plasma, po, 50 mg/kg, PO at 50 mg/kg, female BALB/c mice
[6] = mouse, plasma, IV at 5 mg/kg, female BALB/c mice
[7] = mouse, plasma, PO at 50 mg/kg, female BALB/c mice

For `C=C1CC[C@@H]2[C@](C)(CO)[C@H](O)CC[C@@]2(C)[C@@H]1C/C=C1/C(=O)OC[C@H]1O` [andrographolide], the “decrease in the cell number at the G1/G0 phase over the control” value (“decrease in the cell number” for short) (MDA-MB-231 cells [1]; 24 h) was 24.75 ± 0.5%, the “increase in S population over the untreated control” value (MDA-MB-231 cells [1]; 24 h) was 9.91 ± 0.3% and the “decrease in the cell number” value (MDA-MB-231 cells [1]; 36 h) was 28.86 ± 0.7%. For the same molecule, the “increase in S population over the untreated control” value (MDA-MB-231 cells [1]; 36 h) was 14.21 ± 0.2%, the “decrease in the cell number” value (MDA-MB-231 cells [1]; 48 h) was 33.53 ± 1.1% and the “caspase-7 (effector caspase) activation” value (caspase-7) was “activation in a dose-dependent manner”. The “cytosolic cytochrome c expression, increase” value (cytochrome c; cytosolic fraction) was 7.13 ± 1.17 fold, the “cytochrome c in the mitochondrial fraction, decrease” value (cytochrome c; mitochondrial fraction) was 1.92 ± 0.05 fold and the cell death (MDA-MB-231 cells [2]) was ~ 50%. For the same molecule, the “Plasma exposure at 24 h” value ([3]; IV arm, 5 mg/kg) was “below lower limit of quantitation”, the bioavailability ([3]; female BALB/c mice) was 9.27 ± 1.69% and the “Plasma exposure at 24 h” value ([3]; PO arm, 50 mg/kg) was “below lower limit of quantitation”. For the same molecule, the CL ([3]; PO at 50 mg/kg, female BALB/c mice) was 1045 ± 201.7 mL/min/kg, the AUC(0-inf) [3, 4] was 2.51 ± 0.56 µM·h and the clearance [3, 4] was 91.8 mL/min/kg. For the same molecule, the half-life [3, 4] was 1.86 ± 0.21 h, the bioavailability ([3]; female, BALB/c, mouse, plasma, oral, 50 mg/kg, female BALB/c mice, read-out: Bioavailability) was less than 10% and the AUC(0-inf) [3, 5] was 2.33 ± 0.42 µM·h. For the same molecule, the half-life [3, 5] was 3.3 ± 0.35 h, the C0 [3, 6] was 14.6 ± 4.04 µM and the AUC(0-t) [3, 6] was 1.96 ± 0.38 µM·h. It also gave a Cmax [3, 7] of 0.73 ± 0.17 µM, a Tmax [3, 7] of 0.42 ± 0.14 h and an AUC(0-t) [3, 7] of 1.92 ± 0.36 µM·h.

— publication PMC4833932, “Cytotoxicity and cell cycle arrest induced by andrographolide lead to programmed cell death of MDA-MB-231 breast cancer cell line” (Journal of Biomedical Science, 2016)
